Data taken from patent US5086054A, “Novel arylcycloalkanepolyalkylamines” (SRI International, priority 1990, dated 1992).
Counter-ions that a name gives are not always drawn. Like-named read-outs stand apart in the source and are kept apart here.

What was measured:
SIGMA RECEPTOR = biological target: T1, SIGMA RECEPTOR (Cavia porcellus, UniProt Q60492); assay: Sigma receptor binding assay ([3H]-d-SKF-10,047 displacement, brain membranes); parameters: species or system guinea-pig (male Hartley); settings: for IC50: read-out: SIGMA RECEPTOR IC50
T1 construct: Two milliter aliquots of the brain membrane preparation, containing 1.7 mg of protein; tissue Pel-Freeze (Rogers, Arkansas); host or cells: guinea-pig brains plus cerebella, membranes
Experimental: (§1) This example illustrates testing of compounds in receptor binding assays.
(§2) Frozen brains from male Hartley guinea-pigs were obtained from Pel-Freeze (Rogers, Arkansas).
(§3) The brains plus cerebella were homogenized in 10 volumes (v/w) of 0.1M, pH 7.4, ice-cold Tris-HCl buffer with a Brinkmann polytron at setting 4 for 20 seconds. The homogenates were centrifuged at 20,000×g for 20 minutes at 4° C. The pellets were suspended in 10 volumes of ice-cold water and, after sitting on ice for 10 minutes, were centrifuged 30 minutes at 20,000×g at 4° C. The resulting pellets were resuspended in the above Tris buffer in ratio 1:100 (w/v) for σ receptor assays or in 5 mM Tris-HCl having pH 7.4, for PCP receptor assays. The final suspension was homogenized with a dounce glass-glass tissue grinder Wheaton "200", at small clearance (B), with three strokes before use. Two milliter aliquots of the brain membrane preparation, containing 1.7 mg of protein, were incubated in quadruplicate for one hour at 23° C. with competing mixture of ligand and radioligand. For σ receptors, [^3 H]-d-SKF-10,047, 2 nM was used. For PCP receptors, [^3 H] TCP [^3 H]-1-[1-(2-thienyl)cyclohexyl]piperidine), 1 nM was used. The nonspecific bindings were defined by 0.1 mM d-SKF-10,047 and 0.1 mM phencyclidine respectively for σ and PCP receptors. After incubation, free ligand was separated from bound ligand by rapid filtration through Whatman GF/C filters. The filters had been soaked before use in isoamyl alcohol-saturated water to prevent nonspecific [^3 H]-d-SKF-10,047 binding to the filter. In the PCP receptor assay, the filter was soaked in 0.5% polyethylenimine to reduce the filter binding of [^3 H]-TCP. After filtration, the trapped tissue was washed three times with 4 ml aliquots of 0.1 M ice-cold Tris buffer at pH 7.4 for σ receptors and 5 mM, ice-cold Tris buffer pH 7.4 for PCP receptors. The filters were transferred to 5 ml of liquid scintillation fluid and the retained radioactivity was measured by liquid scintillation spectrometry.

PCP RECEPTOR = assay: PCP receptor binding assay ([3H]-TCP displacement, brain membranes); parameters: species or system guinea-pig (male Hartley); settings: read-out: PCP RECEPTOR IC50
Experimental: as §1, §2, §3
Programs in Biomed. 17:107 (1983)].

σ receptors = settings: literature; cited from earlier work
[1] = Table 2, aryl ring substituents

T1 sequence (Q60492 whole entry): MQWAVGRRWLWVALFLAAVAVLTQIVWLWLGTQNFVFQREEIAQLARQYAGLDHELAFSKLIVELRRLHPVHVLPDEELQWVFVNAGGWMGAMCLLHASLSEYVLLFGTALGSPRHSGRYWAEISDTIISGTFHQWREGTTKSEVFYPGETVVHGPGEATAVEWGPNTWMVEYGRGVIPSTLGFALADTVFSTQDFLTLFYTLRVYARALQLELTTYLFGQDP

SMILES | SIGMA RECEPTOR SLOPE (SIGMA RECEPTOR; Table 3) | IC50 (SIGMA RECEPTOR; Table 3, cycloalkyl ring size) [µM] | IC50 (PCP RECEPTOR; Table 3, cycloalkyl ring size) [µM] | affinity / binding at σ receptors (in words) (σ receptors) | also measured
COc1cccc(C2(CN(C)C)CCCCC2)c1 [Compound 42] |  |  |  |  | SIGMA RECEPTOR SLOPE (SIGMA RECEPTOR; Table 2): 0.70 ± 0.06; IC50 (SIGMA RECEPTOR; [1]): 2.85 µM; IC50 (PCP RECEPTOR; [1]): > 25 µM
COc1ccc(C2(CN(C)C)CCCCC2)cc1OC [Compound 43] |  |  |  |  | potency at σ receptors (in words) (SIGMA RECEPTOR): poor to reasonable potency at σ sites; selectivity for σ receptors (in words) (SIGMA RECEPTOR): high selectivity for σ receptors; SIGMA RECEPTOR SLOPE (SIGMA RECEPTOR; Table 2): 0.66 ± 0.13; IC50 (SIGMA RECEPTOR; [1]): 9.05 µM; IC50 (PCP RECEPTOR; [1]): > 25 µM
c1ccc(C2(CN3CCCCC3)CCCC2)cc1 [Compound 44] | 1.03 ± 0.04 | 0.995 | > 25 |  | 
c1ccc(C2(CN3CCCCC3)CC2)cc1 [Compound 45] | 0.83 ± 0.19 | 5.59 | 8.84 |  | 
O=C(OCCN1CCCC1)C1(c2ccccc2)CCCC1 [Compound 46] | 0.68 ± 0.06 | 0.454 | > 25 |  | 
O=C(OCCN1CCCC1)C1(c2ccccc2)CC1 [Compound 47, 2-(1-Pyrrolidino)ethyl 1-Phenylcyclopropane-1-carboxylate hydrochloride] | 0.78 ± 0.09 | 1.46 | > 25 |  | 
C=CCN1CCC2(C)c3cc(O)ccc3CC1C2C (stereo not drawn) [N-allylnormetazocine] |  |  |  | bind to σ receptors | 
CC1C2Cc3ccc(O)cc3C1(C)CCN2CC1CC1 (stereo not drawn) [cyclazocine, 3-(cyclopropylmethyl)-1,2,3,4,5,6-hexahydro-6,11-dimethyl-2,6-methano-3-benzazocin-8-ol] |  |  |  | bind to σ receptors | 
C=CCN1CC[C@@]23CCCC[C@@H]2[C@@H]1Cc1ccc(O)cc13 [dextrallorphan] |  |  |  | bind to σ receptors | 
CC(C)=CCN1CCC2(C)c3cc(O)ccc3CC1C2C (stereo not drawn) [pentazocine, 2-dimethylallyl-5,9-dimethyl-2-hydroxy-benzomorphan] |  |  |  | bind to σ receptors | 
